{"source": "patent US8192962B2", "about": "“Processes for detecting toxic substances” (Daikin Industries, Ltd., priority 2001, dated 2012)", "system": "Stress protein genes", "assay": "DNA chip mRNA expression in yeast, stress protein genes (Table 6)", "format": "cell-based, Saccharomyces cerevisiae S288C", "procedure": "Yeast (Saccharomyces cerevisiae S288C (α SUC2mal mel gap2 CUP1)) were incubated at 25° C. on YPD medium (yeast extract 1%, polypepton 2%, glucose 2%). One of toxic chemical substances was added to the cells at logarithmic growth phase, and the cells were further incubated for two hours. Cells were cultured without any chemical substance in the same condition, and were used as control. Concentrations of the chemical substances were defined to inhibit the growth of the yeast but not lead to death.\nAfter completion of the incubation, the culture was centrifuged to collect the cells. To the cells, sodium acetate buffer (50 mM sodium acetate, 10 mM EDTA, 1% SDS) was added, and the mixture was shaken at 65° C. for five minutes, followed by returning to room temperature, and obtaining the supernatant, of which the procedures were repeated two times. To the supernatant, ½ amount of a solution of phenol/chloroform was added, and the mixture was centrifuged to give a supernatant, which was added with an equal amount of chloroform, and the mixture was centrifuged to give a supernatant. To the supernatant, an equal amount of isopropanol containing 0.3 M sodium acetate was added, and the mixture was allowed to stand at room temperature for 30 minutes, after which the mixture was centrifuged to give a sediment of the whole RNAs. Seventy % ethanol was added to the sediment, and the mixture was again centrifuged to give a sediment, which was then dried and dissolved in water. mRNA was isolated from the whole RNAs as followings. In view of the fact that a poly A chain is attached to the 3′ terminus of mRNA, a polynucleotide having a poly T structure which was immobilized on the surface of latex beads was used to trap the mRNA, and then the mRNA was washed and eluted with spine column (Oligotex-dT30<Super>mRNA Purification Kit, Takara). Reverse transcription of the mRNA was conducted with a reverse transcriptase (Super Script II Reverse Transcriptase; catalogue No. 18064-014, GibcoBRL) using fluorescence-labeled nucleotides to give cDNAs that were introduced with Cy3-dUTP or Cy5-dUTP during the reverse transcription.\nThe labeled cDNAs were dissolved in TE buffer (10mM Tris-HCl/1 mM EDTA, pH8.0), and the solution was dropped on the DNA chip containing the whole genes of yeast (DNA Chip Research Inc. Japan) so that the cDNAs were hybridized on the DNA chip at 65° C. for over 12 hours. The fluoresces intensity of the DNA chip was read with a scanner, and the ratio relative to the fluorescence intensity resulting from the absence of chemical substance was estimated as the following, which is shown in Tables 1 to 9: […]", "data": [{"smiles": "[Cl][Pb][Cl]", "note": "[(4), PbCl2]", "values": [{"measurement": "The level of expressed mRNA in the presence of chemical substance/The level of expressed mRNA in the absence of chemical substance", "setting": "yeast gene YIL033C", "result": 1.3}, {"measurement": "The level of expressed mRNA in the presence of chemical substance/The level of expressed mRNA in the absence of chemical substance", "setting": "yeast gene YIR037W", "result": 2.3}, {"measurement": "The level of expressed mRNA in the presence of chemical substance/The level of expressed mRNA in the absence of chemical substance", "setting": "yeast gene YIR038C", "result": 2.0}, {"measurement": "The level of expressed mRNA in the presence of chemical substance/The level of expressed mRNA in the absence of chemical substance", "setting": "yeast gene YJL128C", "result": 0.8}, {"measurement": "The level of expressed mRNA in the presence of chemical substance/The level of expressed mRNA in the absence of chemical substance", "setting": "yeast gene YJL158C", "result": 1.5}, {"measurement": "The level of expressed mRNA in the presence of chemical substance/The level of expressed mRNA in the absence of chemical substance", "setting": "yeast gene YJL159W", "result": 1.1}, {"measurement": "The level of expressed mRNA in the presence of chemical substance/The level of expressed mRNA in the absence of chemical substance", "setting": "yeast gene YJL165C", "result": 1.6}, {"measurement": "The level of expressed mRNA in the presence of chemical substance/The level of expressed mRNA in the absence of chemical substance", "setting": "yeast gene YJR090C", "result": 0.8}, {"measurement": "The level of expressed mRNA in the presence of chemical substance/The level of expressed mRNA in the absence of chemical substance", "setting": "yeast gene YKL161C", "result": 2.2}, {"measurement": "The level of expressed mRNA in the presence of chemical substance/The level of expressed mRNA in the absence of chemical substance", "setting": "yeast gene YKL163W", "result": 1.9}, {"measurement": "The level of expressed mRNA in the presence of chemical substance/The level of expressed mRNA in the absence of chemical substance", "setting": "yeast gene YKL164C", "result": 0.9}, {"measurement": "The level of expressed mRNA in the presence of chemical substance/The level of expressed mRNA in the absence of chemical substance", "setting": "yeast gene YKL210W", "result": 0.7}, {"measurement": "The level of expressed mRNA in the presence of chemical substance/The level of expressed mRNA in the absence of chemical substance", "setting": "yeast gene YKR053C", "result": 1.2}, {"measurement": "The level of expressed mRNA in the presence of chemical substance/The level of expressed mRNA in the absence of chemical substance", "setting": "yeast gene YLL024C", "result": 0.8}, {"measurement": "The level of expressed mRNA in the presence of chemical substance/The level of expressed mRNA in the absence of chemical substance", "setting": "yeast gene YLL026W", "result": 1.7}, {"measurement": "The level of expressed mRNA in the presence of chemical substance/The level of expressed mRNA in the absence of chemical substance", "setting": "yeast gene YLL039C", "result": 1.2}, {"measurement": "The level of expressed mRNA in the presence of chemical substance/The level of expressed mRNA in the absence of chemical substance", "setting": "yeast gene YLL060C", "result": 2.6}, {"measurement": "The level of expressed mRNA in the presence of chemical substance/The level of expressed mRNA in the absence of chemical substance", "setting": "yeast gene YLR006C", "result": 6.2}, {"measurement": "The level of expressed mRNA in the presence of chemical substance/The level of expressed mRNA in the absence of chemical substance", "setting": "yeast gene YLR109W", "result": 0.9}, {"measurement": "The level of expressed mRNA in the presence of chemical substance/The level of expressed mRNA in the absence of chemical substance", "setting": "yeast gene YLR259C", "result": 1.6}, {"measurement": "The level of expressed mRNA in the presence of chemical substance/The level of expressed mRNA in the absence of chemical substance", "setting": "yeast gene YML007W", "result": 1.3}, {"measurement": "The level of expressed mRNA in the presence of chemical substance/The level of expressed mRNA in the absence of chemical substance", "setting": "yeast gene YML070W", "result": 1.9}, {"measurement": "The level of expressed mRNA in the presence of chemical substance/The level of expressed mRNA in the absence of chemical substance", "setting": "yeast gene YMR021C", "result": 1.1}, {"measurement": "The level of expressed mRNA in the presence of chemical substance/The level of expressed mRNA in the absence of chemical substance", "setting": "yeast gene YMR173W", "result": 0.9}, {"measurement": "The level of expressed mRNA in the presence of chemical substance/The level of expressed mRNA in the absence of chemical substance", "setting": "yeast gene YMR186W", "result": 0.9}, {"measurement": "The level of expressed mRNA in the presence of chemical substance/The level of expressed mRNA in the absence of chemical substance", "setting": "yeast gene YNL064C", "result": 1.1}, {"measurement": "The level of expressed mRNA in the presence of chemical substance/The level of expressed mRNA in the absence of chemical substance", "setting": "yeast gene YNL160W", "result": 2.0}, {"measurement": "The level of expressed mRNA in the presence of chemical substance/The level of expressed mRNA in the absence of chemical substance", "setting": "yeast gene YNL241C", "result": 1.0}, {"measurement": "The level of expressed mRNA in the presence of chemical substance/The level of expressed mRNA in the absence of chemical substance", "setting": "yeast gene YNR076W", "result": 1.0}, {"measurement": "The level of expressed mRNA in the presence of chemical substance/The level of expressed mRNA in the absence of chemical substance", "setting": "yeast gene YOL064C", "result": 0.6}, {"measurement": "The level of expressed mRNA in the presence of chemical substance/The level of expressed mRNA in the absence of chemical substance", "setting": "yeast gene YOL161C", "result": 1.4}, {"measurement": "The level of expressed mRNA in the presence of chemical substance/The level of expressed mRNA in the absence of chemical substance", "setting": "yeast gene YOR008C", "result": 1.1}, {"measurement": "The level of expressed mRNA in the presence of chemical substance/The level of expressed mRNA in the absence of chemical substance", "setting": "yeast gene YOR009W", "result": 0.7}, {"measurement": "The level of expressed mRNA in the presence of chemical substance/The level of expressed mRNA in the absence of chemical substance", "setting": "yeast gene YOR010C", "result": 0.6}, {"measurement": "The level of expressed mRNA in the presence of chemical substance/The level of expressed mRNA in the absence of chemical substance", "setting": "yeast gene YOR027W", "result": 0.8}, {"measurement": "The level of expressed mRNA in the presence of chemical substance/The level of expressed mRNA in the absence of chemical substance", "setting": "yeast gene YOR208W", "result": 2.9}, {"measurement": "The level of expressed mRNA in the presence of chemical substance/The level of expressed mRNA in the absence of chemical substance", "setting": "yeast gene YPL059W", "result": 1.3}, {"measurement": "The level of expressed mRNA in the presence of chemical substance/The level of expressed mRNA in the absence of chemical substance", "setting": "yeast gene YPL106C", "result": 1.1}, {"measurement": "The level of expressed mRNA in the presence of chemical substance/The level of expressed mRNA in the absence of chemical substance", "setting": "yeast gene YPL140C", "result": 1.0}, {"measurement": "The level of expressed mRNA in the presence of chemical substance/The level of expressed mRNA in the absence of chemical substance", "setting": "yeast gene YPL194W", "result": 1.1}, {"measurement": "The level of expressed mRNA in the presence of chemical substance/The level of expressed mRNA in the absence of chemical substance", "setting": "yeast gene YPL223C", "result": 5.1}, {"measurement": "The level of expressed mRNA in the presence of chemical substance/The level of expressed mRNA in the absence of chemical substance", "setting": "yeast gene YPL240C", "result": 0.9}, {"measurement": "The level of expressed mRNA in the presence of chemical substance/The level of expressed mRNA in the absence of chemical substance", "setting": "yeast gene YPR005C", "result": 3.8}, {"measurement": "The level of expressed mRNA in the presence of chemical substance/The level of expressed mRNA in the absence of chemical substance", "setting": "yeast gene YPR026W", "result": 1.3}]}]}
